We go through four compounds from patent publication US20140308657A1, “SERINE PROTEASE INHIBITOR KAZAL ANTIBODIES” (priority 2010, published 2014).

Like-named read-outs stand apart in the source and are kept apart here. Where a SMILES comes first, the peptide text is derived from it. The star is where a group is joined. Cbz = O=C(OCc1ccccc1)*; CH2F = FC*

The test system of one experiment is HCV replicon. Description: HCV replication in HCV replicon cells (Northern blot of HCV RNA). The class given is cell-based. The conditions noted are these: 10^5 IU/ml overnight. The protocol:
(§1) FIG. 7A-7B. SPIK in the HCV expressing cells. SPIK RNA was detected in the cells with/without HCV replicon as before. HCV RNA was defined by the hybridization of membrane with radio-labeled probe specified HCV.
(§2) FIG. 7B—HCV replicon cells were incubated with HCV polymerase inhibitor 888 (2 mM) 2 days (Lines 3 & 4 duplicate) and 10^5 IU/ml interferon-a overnight (Lines 5 & 6 duplicate) or left untreated (Line 1 & 2 duplicate). The suppressions of HCV RNA and SPIK RNA then were analyzed by Northern blot as before. The smear detected by HCV probe under the band of HCV RNA probably was the replication form of HCV.
(§3) Over-expression of SPIK RNA in G54 cells can be abrogated by inhibition of HCV replication. Treatment of HCV replicon cells with either 2 mM of the HCV polymerase inhibitor 888 for two days or 10^5 IU/ml interferon-a overnight has reduced HCV replication by approximately 90% [FIG. 7B, lane 3-6]. This is consistent with previous reports of these antiviral agents (55, 56).

For a further experiment, the system named is SPIK RNA. Description: SPIK RNA level in G54 HCV replicon cells after antiviral treatment. The class given is cell-based, human. As to conditions: 10^5 IU/ml overnight. The protocol:
as §1, §2, §3

A further experiment has as its system caspase 3. Description: Caspase 3 activity in S2-3 and Huh7T cells. As to conditions: 40 hours treatment, caspase 3 kit. The class given is cell-based, human. The protocol:
FIG. 5B. The activation of caspase 3 (CDCA) in S2-3 cells treated with etoposide but not BFA/CHX/Z-VAD. The S2-3 cell and its parental cell Huh7T were either treated with SPDCA inducer BFA/CHX/ZVAD or CDCA inducer etoposide. The caspase activity was determined after […] treatment by Caspase 3 detection kit (Biovision, Mountain View, Calif.).
The same level of apoptosis induced by etoposide in S2-3 cell and Huh7T cell was confirmed by the examination of caspase 3 activity in these cells. After 40 hours treatment, all cells were lysed in […] lysis buffer. […] lysate of each sample was analyzed for caspase 3 activity test using caspase 3 detected kits [Biovision, Mountain View, Calif.]. […] Additionally, the activity of caspase3 was not increased in the cells, in which SPDCA was induced by BFA/CHX, even by double doses [FIG. 5B, B/C/ZX2].

Another experiment relates to prostate tumor cells. As to conditions: cited from earlier work.
The subject of another experiment is HepG2.215 and G54. As to the kind of experiment: Etoposide induced CDCA in HepG2.215 and G54 cells. As to conditions: HepG2.215 and G54, data not shown. The class given is cell-based, human. As for the experimental part:
To study the influence of HCV replication upon SPDCA, G54 and Huh7T cells (its parent cell) were seeded in a 60 mm dish. SPDCA was induced by BFA/CHX/Z-VAD. […] The insensitivity of HCV replicon cell to SPDCA was also seen subsequently by annexin staining. Compared to the parental cells, much fewer HCV expressing cells were stained by annexin after being treated with SPDCA inducers BFA/CHX/Z-VAD [FIG. 8C, Annexin]. DNA fragmentation study also support that the HCV expressing cells were more resistant to apoptosis. 70 hours treatment of BFA/CHX/Z-VAD obviously triggered the DNA fragmentation in Huh7T cell, but not in G54 cells [FIG. 8D]. […] In contrast, both HepG2.215 and G54 are sensitive to CDCA induced by etoposide [data not shown].

In another experiment the test system is S2-3 cells. As to the kind of experiment: Etoposide induced CDCA, annexin stain, S2-3 cells. The conditions noted are these: S2-3 cell, 40 hours treatment. The class given is cell-based, human. As for the experimental part:
(§4) FIG. 5A. S2-3 and Huh7T cells were treated with CDCA inducer 400 μM etoposide. After 40 hours, the cells apoptosis was examined in microscope and stained with annexin.
(§5) 10^5 S2-3 and Huh7T cells were seeded in 60 mm dishes. When the cell reached 90% confluent, CDCA inducer etoposide was added. After 28-40 hours, the cell shrinkage, blebbing and detachment from culture was found in both cell lines. At the same time, the strong fluorescence stain by annexin was also observed in both cell lines [FIG. 5A]. The amount of apoptotic cells in two cell lines was very similar. Around 62% S2-3 cell was stained by annexin, while 58% of Huh7T cell was stained after 40 hours treatment [data not shown].

In another experiment the test system is Huh7T cells. Description: Etoposide induced CDCA, annexin stain, Huh7T cells. The class given is cell-based, human. The conditions noted are these: Huh7T cell, 40 hours treatment. The protocol:
as §4, §5

Regarding interferon-a, in the experiment with HCV replicon, the “reduction of HCV replication” value is listed as “approximately 90%”. In addition, in the experiment on SPIK RNA, the SPIK level entry is given as “correspondingly decreased with HCV RNA”.

Turning to `CC(NC(=O)C(NC(=O)OCc1ccccc1)C(C)C)C(=O)NC(CC(=O)O)C(=O)CF` (stereo not drawn) [Z-VAD] (Cbz-Val-Ala-Asp-CH2F; configuration not given here), the “caspase 3 activity” value in the experiment with caspase 3 is reported as “kept unchanged”. Besides, in the experiment with prostate tumor cells (alone), the “block of FADD induced apoptosis” value was “unable to be completely blocked”.

On to `NCCc1ccc(S(=O)(=O)F)cc1` [AEBSF, 4-2-aminoethyl-benzenesulfonyl fluoride], for which the “block of FADD induced apoptosis” value in the experiment on prostate tumor cells (combining use of Z-VAD and AEBSF) is recorded as “completely blocked”.

As for `COc1cc([C@@H]2c3cc4c(cc3[C@@H](O[C@@H]3O[C@@H]5CO[C@@H](C)O[C@H]5[C@H](O)[C@H]3O)[C@H]3COC(=O)[C@H]23)OCO4)cc(OC)c1O` [etoposide], the “caspase 3 activity” value in the experiment with caspase 3 is “at the same level in both cells”. Further, in the experiment on HepG2.215 and G54, the “sensitivity to CDCA” value was “sensitive”. Further, the “cells stained by annexin” value is given as “Around 62%” with S2-3 cells and 58% in the experiment with Huh7T cells.
